{"source": "patent US20150216867A1", "about": "“COMPOUNDS FOR USE IN GASTRIC COMPLICATION” (NOVARTIS AG, priority 2012, published 2015)", "key": {"[1]": {"system": "neutrophil recruitment into the BAL fluid", "assay": "Neutrophil infiltration into mouse BAL fluid, cigarette smoke exposure model", "assay_type": "in vivo", "conditions": "WT mice, cigarette smoke 2 weeks, 90 mg/kg po", "description": "e) Effect of GPR4 Antagonist on Neurophil Infiltration into Mouse BAL Fluid\nThe role of GPR4 on neutrophil recruitment was determined in the cigarette smoke exposure model. GPR4 WT (wild type) and KO (knockout) mice, and WT treated with the compounds of example No 41 and example No 40 (90 mg/kg po) were exposed to five cigarettes for 2 weeks. The mice were sacrificed 24 hours following last smoke exposure and bronchoalveolar lavage (BAL) was performed.\nThe following table summarizes the results obtained by the GPR4-mediated inhibition of neutrophil recruitment into the BAL fluid: […]"}, "[2]": {"system": "cultured primary DRG cells", "assay": "Dorsal root ganglia stimulation with acid: low pH (6.1) induced CGRP release", "assay_type": "cell-based", "conditions": "read-out: IC50, block of increased CGRP release", "excerpt": "c) Dorsal Root Ganglia Stimulation with Acid—Blockade of the Effect with GPR4 Antagonist Low pH (6.1) induces a significant Calcitonin Gene-Related Peptide (CGPR) release in cultured primary DRG cells."}, "human GPR4 [3]": {"target": "T1, human GPR4 (Homo sapiens, UniProt P46093)", "T1 sequence (P46093 whole entry)": "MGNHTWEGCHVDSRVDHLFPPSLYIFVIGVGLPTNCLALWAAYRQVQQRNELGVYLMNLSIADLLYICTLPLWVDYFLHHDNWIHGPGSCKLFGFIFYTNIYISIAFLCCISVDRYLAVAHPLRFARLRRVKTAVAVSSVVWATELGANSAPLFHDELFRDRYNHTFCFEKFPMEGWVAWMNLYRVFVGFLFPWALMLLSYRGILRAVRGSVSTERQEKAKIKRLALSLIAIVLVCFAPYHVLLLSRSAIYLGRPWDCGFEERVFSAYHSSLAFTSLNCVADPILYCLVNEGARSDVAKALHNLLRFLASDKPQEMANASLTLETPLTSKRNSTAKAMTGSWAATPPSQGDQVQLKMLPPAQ", "assay": "Human GPR4 binding assay ([3H]4(example 39) radioligand, membranes of 300.19 cells)", "design": "c-myc (N); expressed in transfected cells", "description": "(§1) Cells were grown in T175 flasks to a density of about 1×10^6 cells/mL in growth medium. The cells were harvested by centrifugation (3000 rpm for 30 minutes at 4° C.) and the pellet resuspended in ice cold buffer A (20 mM HEPES pH 7.8, 10 mM EDTA, 100 mM NaCl, 1 tab/40 mL protease inhibitor complete). […] The homogenate was centrifuged at 18000 rpm for 50 min at 4° C. and the membrane protein pellet resuspended in cold buffer A using the Polytron (2×20 seconds). The protein concentration is determined using the Bio Rad Protein Assay and human IgG as standard. The volume of the membrane protein suspension is adjusted to a final concentration of about 2 mg protein/mL. The suspension is then once again homogenized (Polytron) on ice at 25000 rpm for 20 seconds before being aliquoted and stored at −80° C.\n(§2) Radio Ligand Binding Assay: Serial dilutions of compounds (stock in 10 mM DMSO) are prepared by first diluting the compounds in DMSO followed by a 1:50 dilution into assay buffer (10 mM HEPES, pH 8.0, 100 mM NaCl, 5 mM MgCl2, 1 mM CaCl2, 0.5% fatty acid-free BSA, 0.05% Tween-20). […] The desired amount of membranes (20 μg/well) is diluted with assay buffer. […] 100 μL of the membrane-suspension is added and the plate stirred for 60 minutes. […] Finally the plate is counted for 2 min/well in a TopCount NXT instrument (Packard Instruments). The data are analyzed using the GraphPad Prism™ software."}, "human GPR4 [4]": {"target": "T1, human GPR4", "assay": "Cell-based assay for human GPR4 activity: pH-induced cAMP formation (HTRF) in HeLa cells", "design": "expressed in transfected cells", "conditions": "HeLa cells stably expressing human GPR4, pH-induced cAMP formation", "description": "HeLa cells stably expressing human GPR4 were established by transfecting the cells with a construct containing the human GPR4 coding sequence. The cells were grown in Dulbecco's Modified Eagle Medium (DMEM)/HAM's tissue culture medium F12 (HAM's F12) supplemented with 10% fetal calf serum (FCS), 100 u/ml penicillin, 100 μg/ml streptomycin and 400 μg/ml G418 and 10 mM Hepes pH 8.0. pH-induced formation of cAMP was determined using the homogeneous time resolved fluorescence (HTRF) technology as provided by CisBio Inc. The cells were seeded in 384-well plates and cultured for 24 hours at 37° C., 5% CO2 before performing the assay. Medium was removed and 10 μl buffer A (Hepes buffered saline (HBS), 10 mM Hepes, pH 8, 2 mM 3-Isobutyl-1-methylxanthin (IBMX)) was added. For compound testing, buffer A with 2× concentrated compounds was used. Cells were incubated for 15 min at room temperature. 10 μl buffer B (HBS, 30 mM Hepes, specific pH) was added to reach the appropriate final pH for stimulation (see below) and incubation was continued for 15 min at room temperature.\nHBS: 130 mM NaCl, 0.9 mM NaH2PO4, 5.4 mM KCl, 0.8 mM MgSO4, CaCl2 1.8 mM, 25 mM glucose, 10-30 mM Hepes. Adjustment of HBS buffers:\nCompounds were diluted from fresh stock solutions at 10 mM in DMSO to 2 mM and then used for serial dilutions in DMSO."}, "human GPR4 [5]": {"target": "T1, human GPR4", "assay": "Human GPR4 binding assay with additional human serum albumin (4% HSA)", "design": "c-myc (N); expressed in transfected cells", "conditions": "binding assay with additional 4% human serum albumin", "description": "as §1\nas §2, with “software. […]” for “software.”"}}, "note": "Counter-ions that a name gives are not always drawn.", "data": [{"smiles": "CCc1nc2c(C)cc(C)nc2n1Cc1ccc(/C=C/CN2CCC(N3CCCCC3)CC2)cc1", "note": "[Example 41, 1′-{(E)-3-[4-(2-Ethyl-5,7-dimethyl-imidazo[4,5-b]pyridin-3-ylmethyl)-phenyl]-allyl}-[1,4′]bipiperidinyl dihydrochloride]", "values": [{"measurement": "recruitment of neutrophils", "setting": "[1]", "result": "significantly reduced"}]}, {"smiles": "CCc1nn2c(C)cc(C)nc2c1Cc1ccc(/C=C/CN2CCN(C[C@@H](O)CO)CC2)cc1", "note": "[Example 17, (R)-3-(4-{(E)-3-[4-(2-Ethyl-5,7-dimethyl-pyrazolo[1,5-a]pyrimidin-3-ylmethyl)-phenyl]-allyl}-piperazin-1-yl)-propane-1,2-diol dihydrochloride]", "values": [{"measurement": "IC50", "setting": "[2]", "result": 0.12, "unit": "µM"}]}, {"smiles": "CCc1nc2c(C)cc(C)nc2n1Cc1ccc(/C=C/CN2CCN(C(C)C)CC2)cc1", "note": "[Example 40, 2-Ethyl-3-{4-[(E)-3-(4-isopropyl-piperazin-1-yl)-propenyl]-benzyl}-5,7-dimethyl-3H-imidazo[4,5-b]pyridine]", "values": [{"measurement": "recruitment of neutrophils", "setting": "[1]", "result": "significantly reduced"}]}, {"smiles": "CCc1nn2c(C)cc(C)nc2c1Cc1ccc(/C=C/C(=O)N2CCNCC2)cc1", "note": "[Example 18, (E)-3-[4-(2-Ethyl-5,7-dimethyl-pyrazolo[1,5-a]pyrimidin-3-ylmethyl)-phenyl]-1-piperazin-1-yl-propenone hydrochloride]", "values": [{"measurement": "IC50", "setting": "human GPR4 [3]", "result": 0.081, "unit": "µM"}, {"measurement": "IC50", "setting": "human GPR4 [4]", "result": 0.043, "unit": "µM"}, {"measurement": "IC50", "setting": "human GPR4 [5]", "result": 0.067, "unit": "µM"}]}, {"smiles": "CCc1nn2c(C)cc(C)nc2c1Cc1ccc(-c2nnc(C3CCNCC3)o2)cc1", "note": "[Example 35, 2-Ethyl-5,7-dimethyl-3-[4-(5-piperidin-4-yl-[1,3,4]oxadiazol-2-yl)-benzyl]-pyrazolo[1,5-a]pyrimidine]", "values": [{"measurement": "IC50", "setting": "[2]", "result": 0.53, "unit": "µM"}]}]}
